Data as given in patent publication US20120207821A1, “Liposomal formulation and use thereof” (priority 2005, published 2012).

Legend:
[1] = test system: Leishmania donovani GE1F8R strain; test: In vivo efficacy assay against SAG-resistant strain; conditions: BALB/c mice, i.v. 8 weeks after inoculation, 30 days post treatment
Method: Inbred mice of 4-6 weeks old, weigh […] and of any sex, strain BALB/c were infected with Leishmania donovani GE1F8R strain by intravenous inoculation with 2.5×10^7 amastigotes from the spleen of an infected hamster. Eight weeks after inoculation, the mice were divided into groups of 4-5 animals and dosed intravenously into the tail vein with optimal dose of free SAG, equivalent amount of free SAG, empty PC-SA liposome or SAG entrapped PC-SA liposome ([…]). Mice were sacrificed on 30 days post treatment. Livers and spleens were excised and weighed. Bone marrow was also isolated and smeared on glass slides. Impressions smears were prepared from the cut surface of the liver and spleen. The impression smears were stained with Giemsa, and number of amastigotes counted microscopically per 500 cell nuclei. The results of 30 days post treatment are expressed as Leishman Donovan units and percentage suppression in parasitemia with respect untreated infected control were calculated.

[2] = test system: Leishmania donovani, AG83; test: In vivo efficacy in established infection model (8 weeks post infection); conditions: BALB/c mice, single i.v. dose 8 weeks post infection, 30 days post treatment, SAG 0.3-0.4 g/kg body wt.
Source text: Inbred mice of 4-6 weeks old, weigh 20 g and of any sex, strain BALB/c were infected with Leishmania donovani, AG83, by intravenous inoculation with 2.5×10^7 amastigotes from the spleen of an infected hamster. Eight weeks after inoculation, the mice were divided into groups of 4-5 animals and administered at a single dose intravenously into the tail vein with optimal dose of free SAG (0.3 g/kg wt.) or empty PC-SA liposome (1.1 g/kg wt.) or SAG entrapped PC-SA liposome (0.015 g/kg of SAG into 1.1 g/kg body wt.) or SAG entrapped in PC-Chol liposome (0.015 g/kg of SAG into 1.25 g/kg wt. of lipid). Mice were sacrificed on 30 days post treatment. Livers and spleens were excised and weighed. Bone marrow was also isolated from femur bone and smeared on glass slides. Impressions smears were prepared from the cut surface of the liver and spleen. The impression smears were stained with Giemsa, and number of amastigotes counted microscopically per 500 cell nuclei. The results of 30 days post treatment are shown below and expressed as percentage suppression in parasitemia with respect to untreated infected.

[3] = test system: Leishmania donovani, AG83; test: In vivo activity screening in established infection model with graded doses to calculate 50% effective dose; conditions: for % Inhibition of liver parasite level / % Inhibition of spleen parasite level: BALB/c mice, i.v., 30 days post treatment
Source text: Inbred mice of 4-6 weeks old, weigh 20 g and of any sex, strain BALB/c were infected with Leishmania donovani, AG83, by intravenous inoculation with 2.5×10^7 amastigotes from the spleen of an infected hamster. Eight weeks after inoculation, the mice were divided into groups of 4-5 animals and dosed intravenously into the tail vein with graded dose of free SAG, empty PC-SA liposome, or SAG entrapped PC-SA liposome. Mice were sacrificed on 30 days post treatment. The livers and spleens were excised and weighed. Impressions smears were prepared from the cut surface of the liver and spleen. The impression smears were stained with Giemsa, and number of amastigotes counted microscopically per 500 cell nuclei. The results of 30 days post treatment are expressed as percentage suppression in parasite burden in compared to infected but untreated mice. Thereby, the dosage necessary to reduce the parasite count to 50% of the untreated group could be calculated.

[4] = test system: Leishmania donovani, AG83; test: In vivo activity screening in chronic infection model (12 weeks post infection); conditions: BALB/c mice, single i.v. dose 12 weeks post infection, 30 days post treatment; SAG 0.015-0.02 g/kg body wt.
Source text: Inbred mice of 4-6 weeks old, weigh 20 g and of any sex, strain BALB/c were infected with Leishmania donovani, AG83, by intravenous inoculation with 2.5×10^7 amastigotes from the spleen of an infected hamster. Twelve weeks after inoculation, the mice were divided into groups of 4-5 animals and dosed intravenously into the tail vein with empty PC-SA liposome (1-1.1 g/kg body wt.), free SAG (0.015-0.020 g/kg body wt.) or equivalent amount of SAG entrapped in PC-SA liposome (0.015 g/kg of SAG in 1-1.1 g/kg body wt of liposome). Mice were sacrificed on 30 days post treatment. Livers and spleens were excised and weighed. Impressions smears were prepared from the cut surface of the liver and spleen. The impression smears were stained with Giemsa, and number of amastigotes counted microscopically per 500 cell nuclei. The results of 30 days post treatment are shown below and expressed percentage suppression in parasitemia with respect to untreated infected control calculated.

[5] = liver parasite level, dose expressed as SAG
[6] = spleen parasite level, dose expressed as SAG

Compound: C[C@@H]1[C@H](O)[C@@H](C)/C=C/C=C/C=C/C=C/C=C/C=C/C=C/[C@H](O[C@@H]2O[C@H](C)[C@@H](O)[C@H](N)[C@@H]2O)C[C@@H]2O[C@](O)(C[C@@H](O)C[C@@H](O)[C@H](O)CC[C@@H](O)C[C@@H](O)CC(=O)O[C@H]1C)C[C@H](O)[C@H]2C(=O)O [Amphotericin B]
- % Inhibition of parasite level ([1]; bone marrow, Amphotericin B 0.002-0.0025 g/kg body wt.): 85.091%
- % Inhibition of parasite level ([1]; liver, Amphotericin B 0.002-0.0025 g/kg body wt.): 87.778%
- % Inhibition of parasite level ([1]; spleen, Amphotericin B 0.002-0.0025 g/kg body wt.): 85.091%

Compound: sodium antimony gluconate [SAG]
- % Inhibition of liver parasite level [2]: 82.322%
- % Inhibition of spleen parasite level [2]: 70%
- % Inhibition of parasite level ([2]; bone marrow): 44.029%
- % Inhibition of liver parasite level ([3]; SAG 0.005 g/kg body wt.): 56.55%
- % Inhibition of spleen parasite level ([3]; SAG 0.005 g/kg body wt.): 41.27%
- % Inhibition of liver parasite level ([3]; SAG 0.010 g/kg body wt.): 56.7%
- % Inhibition of spleen parasite level ([3]; SAG 0.010 g/kg body wt.): 50.95%
- % Inhibition of liver parasite level ([3]; SAG 0.050 g/kg body wt.): 61.29%
- % Inhibition of spleen parasite level ([3]; SAG 0.050 g/kg body wt.): 55.67%
- % Inhibition of liver parasite level ([3]; SAG 0.10 g/kg body wt.): 88.03%
- % Inhibition of spleen parasite level ([3]; SAG 0.10 g/kg body wt.): 65.79%
- % Inhibition of liver parasite level ([3]; SAG 0.30 g/kg body wt.): 92.73%
- % Inhibition of spleen parasite level ([3]; SAG 0.30 g/kg body wt.): 70.49%
- % Inhibition of liver parasite level ([3]; SAG 0.50 g/kg body wt.): 96.6%
- % Inhibition of spleen parasite level ([3]; SAG 0.50 g/kg body wt.): 80.33%
- ED50 (+S.E) Liver, SAG [3, 5]: 0.012 + 0.004 g/kg body wt.
- ED90 (+S.E) Liver, SAG [3, 5]: 0.347 + 0.005 g/kg body wt.
- ED50 (+S.E) Spleen, SAG [3, 6]: 0.145 + 0.020 g/kg body wt.
- ED90 (+S.E) Spleen, SAG [3, 6]: 0.493 + 0.028 g/kg body wt.
- % Inhibition of liver parasite level [4]: 50.88%
- % Inhibition of spleen parasite level [4]: 26.69%
- % Inhibition of parasite level ([1]; bone marrow, SAG 0.015-0.02 g/kg body wt.): 0%
- % Inhibition of parasite level ([1]; bone marrow, SAG 0.3 g/kg body wt.): 16.836%
- % Inhibition of parasite level ([1]; liver, SAG 0.015-0.02 g/kg body wt.): 0%
- % Inhibition of parasite level ([1]; liver, SAG 0.3 g/kg body wt.): 5.309%
- % Inhibition of parasite level ([1]; spleen, SAG 0.015-0.02 g/kg body wt.): 0%
- % Inhibition of parasite level ([1]; spleen, SAG 0.3 g/kg body wt.): 16.836%
